The values that follow are results of earlier work, collected in PMC2119397 (The Journal of Experimental Medicine, 1992).

In this data set the test system is DR1.

Like-named read-outs stand apart in the source and are kept apart here.

In the case of NALYKMNAVAKAA [NNX 83-91], the “DR1 binding (in words)” value (ref Sinigaglia, F., unpublished observation) is listed as “DR1 binding”. Take PKYVKQNTLKLAT [HA 307-319]: the “DR1 binding (in words)” value was “DR1 binding”. Regarding “TT 830-843: DR1-binding synthetic peptide of tetanus toxoid (QYIKANSKFIGITE; UniProt P04958 830-843, looked up, fragment)”, the “DR1 binding (in words)” value is on record as “DRl-binding”.
